Experimental data published in publication PMC12775434, “Ultra-large virtual screening unveils potent agonists of the neuromodulatory orphan receptor GPR139” (Nature Communications, 2025).
Where “and” joins values, the source holds several entries; their conditions need not be identical. Equal entries are not always repeated.

Target: T1, GPR139 (Homo sapiens, UniProt Q6DWJ6)
T1 sequence (Q6DWJ6 1-353): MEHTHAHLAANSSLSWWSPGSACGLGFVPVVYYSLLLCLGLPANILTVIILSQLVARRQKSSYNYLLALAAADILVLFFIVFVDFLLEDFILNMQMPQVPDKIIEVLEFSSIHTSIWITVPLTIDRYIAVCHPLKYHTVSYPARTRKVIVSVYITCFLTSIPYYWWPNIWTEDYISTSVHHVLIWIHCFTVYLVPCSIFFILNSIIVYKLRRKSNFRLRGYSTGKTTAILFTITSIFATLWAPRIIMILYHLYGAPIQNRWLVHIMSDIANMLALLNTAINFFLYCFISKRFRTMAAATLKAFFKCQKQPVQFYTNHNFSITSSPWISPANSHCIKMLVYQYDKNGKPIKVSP
Assay: Ca2+ mobilization assay, HEK293A cells transiently expressing GPR139
Assay type: cell-based
Details: for Emax: HEK293-A, normalized to JNJ-63533054 (JNJ(S)); for Emax / EC50: HEK293A transient; for EC50: Supplementary Table 6, read-out: pEC50 Ca2+ (converted); for Ca2+ signal (% of JNJ-63533054): replicate experiments
Description: Primary screening and pharmacological characterization of compounds were performed using a CHO-K1 cell line that stably expresses human GPR139 (GPR139-CHOk1). The GPR139-CHOk1 cell line was kindly provided by H. Lundbeck A/S, Denmark[24]. GPR139-CHOk1 cells were grown in Ham’s F-12 Kaighn’s Modification Medium (ThermoFisher #21127030) supplemented with 10% dialyzed fetal bovine serum (US origin, ThermoFisher #26400044), 100 units/mL Penicillin-Streptomycin (ThermoFisher #15140122), and 1 mg/mL Geneticin (ThermoFisher #11811031). […] M1R-CHOk1 cells were purchased from The Missouri S&T cDNA Resource Center (#CEM100TN00). M1R-CHOk1 cells were grown in Ham’s F12 Medium (ThermoFisher #21765029) supplemented with 10% fetal bovine serum (Brazilian origin, ThermoFisher #10270106), 100 units/mL Penicillin-Streptomycin, and 0.25 mg/mL Geneticin. HEK293A cells transiently transfected with GPR139 were used for additional pharmacological assessment of signaling pathways activated by GPR139. HEK239A cells were generously provided by Dr. Asuka Inoue, Tohoku University, Japan. HEK293A cells were grown in Dulbecco’s Modified Eagle Medium (ThermoFisher #31966047) supplemented with 10% dialyzed fetal bovine serum and 100 units/mL Penicillin-Streptomycin. Cell lines were maintained at 37 °C in humidified incubator equilibrated with 5% CO2.
30,000 GPR139- or M1R-CHOk1 cells/well were seeded in black clear bottom tissue culture treated 96-well plates (Greiner #655090) and grown for 20–24 h. Cells were washed with HEPES buffer (Hank’s Balanced Salt Solution (HBBS) supplemented with 20 mM HEPES, 1 mM MgCl2, and 1 mM CaCl2; pH 7.4). Cells were loaded with 50 µL of 2 µM Fluo-4 AM dye (ThermoFisher #F14202) in HEPES buffer supplemented with 2.5 mM probenecid and 0.01% Pluronic F-68 (ThermoFisher #24040032) for 1 h at 37 °C. Cells were washed with HEPES buffer. 50 µL HEPES buffer supplemented with 2.5 mM probenecid was added, and the cells were incubated for 10 min at 37 °C before measurement. 50 µL test compounds diluted in HEPES buffer from DMSO stocks (final DMSO concentration of maximally 0.3%) were added automatically after baseline measurements. The intracellular calcium mobilization was measured on a FlexStation 3 Multimode Microplate Reader (Molecular Devices) at 37 °C with filters for excitation of 485 nm and emission of 525 nm.
HEK293A cells were reverse-transfected with human GPR139 for Ca^2+ mobilization experiments with transiently expressed GPR139. The construct has been generated and described previously by Nøhr et al.. DNA and Lipofectamine 2000 Transfection Reagent (ThermoFisher #11668019) were separately diluted in Opti-MEM I Reduced Serum Medium (ThermoFisher #31985070). 10 ng GPR139 DNA and 250 nL Lipofectamine were used for each well. The dilutions were incubated at room temperature for 5 min. Then, DNA and Lipofectamine dilutions were combined in 1:1 volumetric ratio and incubated at room temperature for 20 min to obtain the transfection solutions. 10 µL transfection solution and 20,000 cells in 100 µL growth medium were distributed in each well of black clear bottom tissue culture treated 96-well plates that were previously coated with poly-D-lysine (Sigma-Aldrich #P0899). Cells were grown for approximately 48 h. A calcium mobilization assay was performed as described.
Pharmacological data and statistical analyses were performed in GraphPad Prism v9–10 (Graphpad Software Inc., San Diego, CA), which are also specifically described in the figure and table legends. The functional assay responses were normalized to buffer (0%) and Lundbeck Cmp 1a or JNJ-63533054 (100%), for Ca^2+ and IP1 experiments in the GPR139-CHOk1 stable cell line or Ca^2+, G protein activation, and arrestin-3 recruitment experiments in the HEK293A cells transiently transfected with GPR139, respectively. Data are from at least three independent experiments, unless stated otherwise. […]

| Emax | EC50 | Structure (SMILES) | Ca2+ signal (% of JNJ-63533054) (log [Compound] M -5.0) | Ca2+ signal (% of JNJ-63533054) (log [Compound] M -5.5) | Ca2+ signal (% of JNJ-63533054) (log [Compound] M -6.0) | Ca2+ signal (% of JNJ-63533054) (log [Compound] M -6.5) | Ca2+ signal (% of JNJ-63533054) (log [Compound] M -7.0) | Ca2+ signal (% of JNJ-63533054) (log [Compound] M -7.5) | Ca2+ signal (% of JNJ-63533054) (log [Compound] M -8.0) | Ca2+ signal (% of JNJ-63533054) (log [Compound] M -8.5) | Ca2+ signal (% of JNJ-63533054) (log [Compound] M -9.0) | Ca2+ signal (% of JNJ-63533054) (log [Compound] M -5.0, listed as JNJ (S)) | Ca2+ signal (% of JNJ-63533054) (log [Compound] M -5.5, listed as JNJ (S)) | Ca2+ signal (% of JNJ-63533054) (log [Compound] M -6.0, listed as JNJ (S)) | Ca2+ signal (% of JNJ-63533054) (log [Compound] M -6.5, listed as JNJ (S)) | Ca2+ signal (% of JNJ-63533054) (log [Compound] M -7.0, listed as JNJ (S)) | Ca2+ signal (% of JNJ-63533054) (log [Compound] M -7.5, listed as JNJ (S)) | Ca2+ signal (% of JNJ-63533054) (log [Compound] M -8.0, listed as JNJ (S)) | Ca2+ signal (% of JNJ-63533054) (log [Compound] M -8.5, listed as JNJ (S)) | Ca2+ signal (% of JNJ-63533054) (log [Compound] M -9.0, listed as JNJ (S)) |
| --- | --- | --- | --- | --- | --- | --- | --- | --- | --- | --- | --- | --- | --- | --- | --- | --- | --- | --- | --- | --- |
| 139 ± 24% | 398 nM | Cc1cscc1-c1nc(CC(=O)N[C@H](C)c2ccccc2)no1 [1.1(R)] | 181 % of JNJ-63533054 and 86 % of JNJ-63533054 and 180 % of JNJ-63533054 | 143 % of JNJ-63533054 and 96 % of JNJ-63533054 and 154 % of JNJ-63533054 | 90 % of JNJ-63533054 and 77 % of JNJ-63533054 and 95 % of JNJ-63533054 | 70 % of JNJ-63533054 and 52 % of JNJ-63533054 and 66 % of JNJ-63533054 | 15 % of JNJ-63533054 and 41 % of JNJ-63533054 and 28 % of JNJ-63533054 | -6.33 % of JNJ-63533054 and 15 % of JNJ-63533054 and 7 % of JNJ-63533054 | -9 % of JNJ-63533054 and 14 % of JNJ-63533054 and -7 % of JNJ-63533054 | 4 % of JNJ-63533054 and 2.33 % of JNJ-63533054 and -0.667 % of JNJ-63533054 | 8 % of JNJ-63533054 and 0.333 % of JNJ-63533054 and -15 % of JNJ-63533054 | – | – | – | – | – | – | – | – | – |
| 146 ± 16% | 12.6 nM | Cc1cscc1-c1nc(CC(=O)N[C@@H](C)c2ccccc2)no1 [1.1(S)] | 135 % of JNJ-63533054 and 150 % of JNJ-63533054 | 108 % of JNJ-63533054 and 167 % of JNJ-63533054 | 164 % of JNJ-63533054 and 119 % of JNJ-63533054 and 118 % of JNJ-63533054 | 143 % of JNJ-63533054 and 116 % of JNJ-63533054 and 108 % of JNJ-63533054 | 137 % of JNJ-63533054 and 106 % of JNJ-63533054 and 101 % of JNJ-63533054 | 103 % of JNJ-63533054 and 92 % of JNJ-63533054 and 129 % of JNJ-63533054 | 70 % of JNJ-63533054 and 74 % of JNJ-63533054 and 57 % of JNJ-63533054 | 28 % of JNJ-63533054 and 33 % of JNJ-63533054 and 37 % of JNJ-63533054 | 29 % of JNJ-63533054 and 19 % of JNJ-63533054 and 13 % of JNJ-63533054 | – | – | – | – | – | – | – | – | – |
| 101 ± 18% | 1260 nM | C[C@@H](NC(=O)CNC(=O)c1cccc(Cl)c1)c1ccccc1 [JNJ(R), reference compound] | 95 % of JNJ-63533054 and 63 % of JNJ-63533054 and 134 % of JNJ-63533054 | 58 % of JNJ-63533054 and 81 % of JNJ-63533054 (2×) | 27 % of JNJ-63533054 and 52 % of JNJ-63533054 and 38 % of JNJ-63533054 | 14 % of JNJ-63533054 and 29 % of JNJ-63533054 and 4.33 % of JNJ-63533054 | 7 % of JNJ-63533054 and 9 % of JNJ-63533054 and -10 % of JNJ-63533054 | 5 % of JNJ-63533054 and 9 % of JNJ-63533054 and -13 % of JNJ-63533054 | -3.33 % of JNJ-63533054 and 8 % of JNJ-63533054 and -14 % of JNJ-63533054 | -0.667 % of JNJ-63533054 and 11 % of JNJ-63533054 and -10 % of JNJ-63533054 | -2.67 % of JNJ-63533054 and 15 % of JNJ-63533054 and -6 % of JNJ-63533054 | – | – | – | – | – | – | – | – | – |
| 133 ± 14% | 15.8 nM | CC(NC(=O)CNC(=O)c1cccc(Cl)c1)c1ccccc1 (centres unmarked) [JNJ-63533054, reference compound] | – | – | – | – | – | – | – | – | – | 174 % of JNJ-63533054 and 107 % of JNJ-63533054 and 106 % of JNJ-63533054 | 140 % of JNJ-63533054 and 98 % of JNJ-63533054 and 168 % of JNJ-63533054 | 143 % of JNJ-63533054 and 109 % of JNJ-63533054 and 138 % of JNJ-63533054 | 110 % of JNJ-63533054 and 107 % of JNJ-63533054 and 98 % of JNJ-63533054 | 101 % of JNJ-63533054 and 88 % of JNJ-63533054 and 92 % of JNJ-63533054 | 90 % of JNJ-63533054 and 115 % of JNJ-63533054 and 68 % of JNJ-63533054 | 51 % of JNJ-63533054 and 82 % of JNJ-63533054 and 41 % of JNJ-63533054 | 37 % of JNJ-63533054 and 28 % of JNJ-63533054 and 33 % of JNJ-63533054 | 13 % of JNJ-63533054 and 3.67 % of JNJ-63533054 and 12 % of JNJ-63533054 |
